Data reported in patent publication US4837228A, “Antiinflammatory and antimicrobial compounds and compositions” (The University of Mississippi, priority 1982, dated 1989).
“Also recorded” adds a separate entry of the source. Read-outs that look alike come from different tables or passages of the source.

Tests used:
[1] = G.C. analysis of CBC in the hemolysis test solution; type: physicochemical
Protocol: It was apparent that not all the CBC actually went into suspension. In order to determine if some of the CBC adhered to the wall of the glassware a 10 ml aliquot of the 2×10^-4 (solution a) of CBC saturated with NaCl was extracted with CHCl3 and analyzed by G.C. […] The flask was rinshed with ethanol and the washings analyzed by G.C. and found to contain 1.355 mg of CBC. The remaining 1.475 mg (50%) of CBC that could not be accounted for by G.C. analysis may have been lost during the extraction procedure or while adjusting the pH of the test solution. If the 1.475 mg CBC which could not be accounted for was actually in suspension then the maximum final concentration of CBC used in the highest CBC test level would be […] or one half the amount listed in Table 6. […] The actual activity of CBC may have been 3 to 30 times more protective of red cell membranes than an equivalent amount of PBZ.

[2] = tested on: erythrocyte (heat-induced hemolysis); assay: erythrocyte membrane stabilization assay (heat-induced erythrocyte hemolysis); type: cell-based
Outline: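 In vitro anti-inflammatory screen measuring stabilization of erythrocytes against heat-induced hemolysis, using 40% or 20% RBC suspensions. Compounds dissolved in physiologic saline or suspended in 2% ethanol in saline, pH adjusted to 7.4.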

[3] = tested on: Trichophyton mentagrophytes; assay: agar well diffusion assay, T. mentagrophytes; type: cell-based; settings: one entry across 48 hr and 72 hr
Protocol: (§1) Both qualitative and quantitative screens were performed. Qualitative screening was accomplished using the agar well diffusion assay technque while quantitative screening was accomplished by the two-fold (broth) serial dilution method to determine the minimum inhibitory concentration (MIC). Innoculation was accomplished with one loop-full of a 1:10 dilution of the 24-hour-old broth culture, (fungal cultures and M.smegmatis more often required 48 to 72 hours of incubation) of the test organisms in sterile water. Streptomycin sulfate was used as a positive control for antibacterial activity while amphitericin B was used as an antifungal positive control. Organisms utilized in the screens included gram-positive, gram-negative, and acid-fast bacteria as well as different types of fungi. […] An intermediate type activity is seen where R is hydrogen. However, where R is lengthened up to C15 a decrease in activity was noted. Total saturation of the two double bonds in the compounds having a methyl side chain lead, in most cases, to an increase in both antifungal and antibacterial activity.

Pseudomonas aeruginosa = assay: agar well diffusion assay, Ps. aeruginosa; type: cell-based; settings: from edge of agar well
Protocol: as §1

[4] = inducement of hypothermia in mice (rectal temperature); type: in vivo; settings: 100 mg/kg i.p.
Protocol: CBC (100 mg/kg) was prepared in emulsion form with 3% Tween 60 and 3% Arlacel in normal saline (0.9%) in such a way as to permit a volume of […] of body weight to be injected intraperitoneally into male mice weighing between 32 and 38 grams.
The animals were divided into groups of 10, and body temperatures were recorded with a multichannel Yellow Springs Telethermometer and Thermistor probes. During the experiment, the mice were confined in plastic restraint tubes. They were allowed 45-60 min. for adaption to the restraint tubes and to rectal thermister before a pre-drug baseline temperature reading was taken. Body temperature readings were obtained at 0.5, 1.0, 2.0, 3.0 and 4.0 hrs. post-CBC administration.
The mean (±S.E.) decrease in temperature from the preinjection baseline reading for saline-, vehicle-, and CBC-treated mice were calculated and statistical analyses were conducted using the two-tailed Student's t test.

Bacillus subtilis = assay: agar well diffusion assay, B. subtilis; type: cell-based; settings: from edge of agar well
Protocol: as §1

Candida albicans = assay: agar well diffusion assay, C. albicans; type: cell-based; settings: from edge of agar well
Protocol: as §1

## CCCCCc1cc(O)c2c(c1)OC(C)(CCC=C(C)C)C=C2 (stereo not shown) [CBC (I), 2-methyl-2(4'methyl-pent-3'-enyl)-5-hydroxy-7-pentyl chromene]
[1]; 10 ml aliquot, G.C.
  amount of original CBC found in solution: 0.3 mg
[1]; G.C.
  amount of CBC found in ethanol washings of the flask: 1.355 mg
[1]; if unaccounted CBC was in suspension
  maximum final concentration of CBC in the highest CBC test level: 50 µM
[1]; nominal 2×10^-4, saturated with NaCl, extracted with CHCl3, G.C.
  concentration of CBC found in test solution a: 20 µM
[2]; Erythrocyte, Table 8, 1.25 × 10^-5 M
  inhibition at 12.5 µM: 55%
[2]; Erythrocyte, Table 8, 2.5 × 10^-5 M, read-out: inhibition of heat-induced erythrocyte hemolysis
  inhibition at 25 µM: 67%
[2]; Erythrocyte, Table 8, 5 × 10^-5 M
  inhibition at 50 µM: 79%
[2]; Erythrocyte, Table 9 Test 2 (40% RBC), 1.0 × 10^-4 M, read-out: percent inhibition of heat-induced erythrocyte hemolysis
  inhibition at 100 µM: 40%
[2]; Erythrocyte, Table 9 Test 2 (40% RBC), 2.0 × 10^-5 M, read-out: percent inhibition of heat-induced erythrocyte hemolysis
  inhibition at 20 µM: 26%
[2]; Erythrocyte, Table 9 Test 3 (20% RBC), 2.0 × 10^-5 M, read-out: percent inhibition of heat-induced erythrocyte hemolysis
  inhibition at 20 µM: 26%
[2]; Erythrocyte, Table 9 Test 3 (20% RBC), 2.0 × 10^-6 M, read-out: percent inhibition of heat-induced erythrocyte hemolysis
  inhibition at 2 µM: 7%
[2]; Erythrocyte, read-out: inhibition of heat-induced erythrocyte hemolysis, Table 8, 1 × 10^-4 M
  inhibition at 100 µM: 98%
[2]; Erythrocyte, read-out: percent inhibition of heat-induced erythrocyte hemolysis, Table 9 Test 3 (20% RBC), 1.0 × 10^-4 M
  inhibition at 100 µM: 37%
[2]; Erythrocyte, 2×10^-5 M, read-out: inhibition of heat-induced red cell hemolysis
  inhibition at 20 µM: 26%
[2]; Erythrocyte, 10^-4 M, read-out: inhibition of heat-induced red cell hemolysis
  inhibition at 100 µM: 35%
[2]; Table 9 Test 3 (20% RBC), 1.0 × 10^-4 M, 100 µM, listed as Cannabichromene
  percent inhibition of heat-induced erythrocyte hemolysis: 33%
[2]; actual activity, may have been
  times more protective of red cell membranes than an equivalent amount of PBZ: 3 to 30 times
[3]
  agar well diffusion result in words: No growth
Pseudomonas aeruginosa; 24 hr
  width of inhibition zone: 1. mm
Pseudomonas aeruginosa; 48 hr
  width of inhibition zone: 1. mm
[4]
  time of peak hypothermic effect: within the first two hours
[4]; 0.5 hrs
  mean (±S.E.) decrease in rectal temperature: 1.86 ± 0.18 °0
[4]; 1.0 hrs
  mean (±S.E.) decrease in rectal temperature: 2.52 ± 0.26 °0
[4]; 2.0 hrs
  mean (±S.E.) decrease in rectal temperature: 1.93 ± 0.21 °0
[4]; 3.0 hrs
  mean (±S.E.) decrease in rectal temperature: 1.53 ± 0.21 °0
[4]; 4.0 hrs
  mean (±S.E.) decrease in rectal temperature: 1.61 ± 0 °0
[4]; listed as CBC
  hypothermia, significance versus controls: significantly different from saline controls at all readings; also recorded: significantly different from vehicle controls at 0.5, 1.0 and 4.0 hrs
Bacillus subtilis; 24 hr
  width of inhibition zone: 8.0 mm
Bacillus subtilis; 48 hr
  width of inhibition zone: 5.0 mm
Candida albicans; 48 hr
  width of inhibition zone: 4.0 mm
Candida albicans; 72 hr
  width of inhibition zone: 4.0 mm
